Experimental data as given in US20250345483A1, “WIDE RANGE SYNTHETIC PEPTIDE NUCLEIC ACIDS AND THEIR APPLICATIONS” (Carilion Clinic, priority 2024, published 2025).

Tested on: gentamicin-resistant P. aeruginosa, Pa383-ΔrahU::GM
Assay: Biofilm biomass, aqueous or dried onto 96-well plates
Assay type: cell-based, Pseudomonas aeruginosa
Settings: 32 h incubation
Procedure: An equimolar (10 μM per antisense-PNA) cocktail of the antisense-PNAs rsmA 0, amrZ 0, and rpoS 0 with 50% methanol (MeOH) (total volume: 60 μL) was dried onto a 96-well clear flat bottom polystyrene tissue culture-treated microplate in a Fisherbrand™ Isotemp™ Digital Dry Bath/Block Heater at 37° C. 60 μL of 100 μg/mL gentamicin was also dried onto wells. Gentamicin-resistant P. aeruginosa, Pa383-ΔrahU::GM was subcultured as described above (Rao, J. et al., 2011)
Biofilms were stained with 175 μL 0.1% crystal violet (CV), rinsed with sterile water until the water ran clear, solubilized in 100 μL of 33% glacial acetic acid (GAA), and absorbance was measured using a spectrophotometer at 590 nm (Wilson, C. et al., 2017).

Substance: gentamicin
- average biofilm biomass (aq, vs untreated in M9+ media): no statistically significant difference
- average biofilm biomass (dried in MeOH, vs dried MeOH control wells): no statistically significant difference
